Reference: patent US7011834B1, “Immunomodulating dimers” (The Board of Trustees of Leland Stanford Junior University, priority 1987, dated 2006)

How the values were obtained:
[1] = system: CD8+CTL line specific for HLA-A2; experiment: Cytotoxicity assay: inhibition of lysis by established CTL, 51Cr-labeled JY targets; type: cell-based, human; settings: cell ratio 10:1, CTL line AJY
[2] = system: murine heart allograft; experiment: Murine heart allograft survival, C57B1/6 donor to CBA recipient; type: in vivo, mice
Description: Following the procedure set forth in Example 2C, daily administration of B2702.75-84 (80 mg/kg/day:ip) to CBA mice with (H-2^k) recipients of a C57B1/6 with (H-2^b) murine heart allograft prolonged graft survival to 11.4±2.6 days compared to 7.5±1.2 days in untreated control animals (n=8; p<0.01, Mann-Whitney U Test). The therapy using the same compound starting at day 5 after transplantation, prolonged graft survival to 9.2±0.4 days (n=5; p<0.02) indicating the subject composition could be useful in an ongoing rejection episode. In combination with a subtherapeutic dose of cyclosporin A (2.7 mg/kg/day; ip; day 0–4) the subject peptide prolonged graft survival to at least 45 days (3 grafts out of 4 still beating) compared to a median graft survival of 14 days in animals that received cyclosporin A monotherapy.
When the B2702.75-84 was prepared as the D-isomer (all amino acids in the D-form) and administered to murine graft recipients at 10 mg/kg/day (ip; day 0–10), graft survival was prolonged to more than 22 days in 4 out of 5 animals (4 grafts out of 5 still beating).

[3] = system: cardiac allograft; experiment: Heterotopic cardiac allograft survival, Lew donor to ACI recipient; type: in vivo, rat; settings: peptide in two weeks before or 4 days after surgery plus CsA on days 0–4
Source text: Vascularized cardiac allografts were heterotypically transplanted into the abdomen of recipient rats using a modification of the technique of Ono and Lindsay (Ono and Lindsey J. Thorac. Cardiovasc. Surg. (1969) 57:225). Abdominal allografts were palpated on a daily basis to assess graft function, and rejection was deemed complete when palpable ventricular contractions ceased.
Cyclosporin A (CsA, Sandoz Pharmaceuticals Corporation, Base, Switzerland) dissolved in olive oil was given orally through a gavage tube at the indicated dose. Peptides were dissolved in water or saline and given intravenously or by gavage as indicated.
Since the B7.75-84 and B2702.75-84 peptides blocked cellular immunity in vivo, we examined their effects on allograft survival in rats. ACI (RT1^a) recipients were given abdominal heterotopic heart allografts from Lew donors (Moeller et al. 1993, supra; Ono and Lindsey. 1969, supra). Graft function was monitored by daily abdominal palpation, and rejection was scored as complete when the palpable ventricular contractions ceased.

[4] = system: rat splenocytes; experiment: Differentiation of rat splenocytes into allospecific CTL in vitro; type: cell-based; settings: initial studies
Description: Therefore, we tested whether splenocytes obtained from rats treated with the peptides in vivo could differentiate into CTL ex vivo. In preliminary studies, the half-life of the B7.75-84 peptide was determined to be 2–3 hours in rats.

[5] = system: popliteal lymph node cells; experiment: Lymph node proliferation assay (footpad injection of splenocytes); type: in vivo, rat; settings: treated within 24 hours of footpad injection; compared with approximately 3:1
Description: ACI or PVG rats (200 g) were injected intravenously with peptides dissolved in saline on day 0. On the indicated days thereafter, the left rear footpads of the rats were injected with 5×10^6 splenocytes from a syngeneic donor and the right rear footpads with 5×10^6 splenocytes from an allogeneic Lew donor (Moeller et al. Transplantation (1993) 55:650). See also Twist and Barnes Transplantation (1973) 15:182; Fanslow et al. Science (1990) 248:739). Seven days after the footpad injection, the animals were sacrificed and the popliteal lymph nodes removed. A single cell suspension was prepared, and the cell number determined using a hemocytometer.
PVG or ACI rats (3 per group) were given a single intravenous injection of 2 mg of each of the four peptides or saline. On the day of treatment, or on days 1, 7, or 10 after treatment, the right footpads were injected with 5×10^6 syngeneic splenocytes while the left footpads were injected with 5×10^6 allogeneic Lew splenocytes. Seven days after the footpad injections, the draining lymph nodes were removed, a single cell suspension was prepared, and the cell number determined.

## RENLRIALRY [B2702.75–84]
[1]; peptide 25 μg/ml
  % Specific Lysis: 60.9%
[1]; peptide 100 μg/ml
  % Specific Lysis: 43.7%
[1]; peptide 200 μg/ml
  % Specific Lysis: 33.1%
[2]; 80 mg/kg/day ip daily, untreated 7.5±1.2 days, n=8
  graft survival: 11.4 ± 2.6 days
[2]; peptide plus subtherapeutic cyclosporin A 2.7 mg/kg/day ip day 0–4
  graft survival: at least 45 days
[2]; therapy starting at day 5 after transplantation, n=5
  graft survival: 9.2 ± 0.4 days
[3]
  rejection of transplants with peptide plus CsA: rejected similarly to allografts in animals treated with CsA alone
[4]
  blocking of differentiation of rat splenocytes into allospecific CTL in vitro: blocked the differentiation
[5]
  ratio of cells recovered from side injected with allogeneic versus syngeneic cells: A similar ratio
